Measured values: ChEMBL document CHEMBL1143210, “2-Substituted 4-, 5-, and 6-[(1E)-3-oxo-3-phenylprop-1-en-1-yl]pyridazin-3(2H)-ones and 2-substituted 4,5-bis[(1E)-3-oxo-3-phenylprop-1-en-1-yl]pyridazin-3(2H)-ones as potent platelet aggregation inhibitors: design, synthesis, and SAR studies” (Bioorg Med Chem Lett, 2008)

System: Blood
Experiment: Inhibition of thrombin-induced platelet aggregation in human blood at 100 uM by turbidimetric method
Format: functional

Row | SMILES | inhibition at 100 µM [%]
1 | O=C(/C=C/c1ccnn(Cc2ccccc2)c1=O)c1ccccc1 | 40

System: Blood
Experiment: Inhibition of thrombin-induced platelet aggregation in human blood by turbidimetric method
Format: functional, tissue-based

Row | SMILES | IC50 [µM]
2 | Cc1[nH]c(=O)c(C#N)cc1-c1ccncc1 [MILRINONE] | 4.7
3 | O=C(/C=C/c1cnn(-c2ccccc2)c(=O)c1)c1ccccc1 | 3.3
4 | O=C(/C=C/c1ccc(=O)n(-c2ccccc2)n1)c1ccccc1 | 12
5 | O=C(/C=C/c1ccccc1)c1ccccc1 [CHALCONE] | 163
6 | Cn1nc(/C=C/C(=O)c2ccccc2)ccc1=O | 13.4
7 | Cn1ncc(/C=C/C(=O)c2ccccc2)cc1=O | 15.7
8 | O=C1C(CC[S+]([O-])c2ccccc2)C(=O)N(c2ccccc2)N1c1ccccc1 (centres undefined) [SULFINPYRAZONE] | 509
9 | Cn1nccc(/C=C/C(=O)c2ccccc2)c1=O | 37.1
10 | O=C(/C=C/c1cnn(Cc2ccccc2)c(=O)c1)c1ccccc1 | 4.2
11 | CN1CC(/C=C/C(=O)c2ccccc2)=C(/C=C/C(=O)c2ccccc2)C=N1 | 6.15
12 | O=C(/C=C/c1ccnn(-c2ccccc2)c1=O)c1ccccc1 | 17.6
13 | O=C(/C=C/C1=C(/C=C/C(=O)c2ccccc2)CN(c2ccccc2)N=C1)c1ccccc1 | 1.98
14 | O=C(/C=C/c1ccc(=O)n(Cc2ccccc2)n1)c1ccccc1 | 60
